Measurements reported in US20140343097A1, “5-(2-1-HYDROXYETHYL)-8-HYDROXYQUINOLIN-2(1H)-ONE FOR THE TREATMENT OF LUNG FUNCTION” (ALMIRALL, S.A., priority 2009, published 2014).

Test system: men with mild to moderate persistent asthma (lung function, FEV1)
Assay: Clinical Phase II cross-over study: FEV1 by spirometry after single inhaled doses in asthma patients
Assay type: in vivo, human
Details: for Peak FEV1 / Peak FEV1 increase over baseline / Peak FEV1 increase over placebo / Trough FEV1 / Trough FEV1 increase over baseline / Trough FEV1 increase over placebo: average, compound single dose 25 mcg, salmeterol 50 mcg at 0 and 12 hours; for Peak FEV1: inhalation by dry powder inhaler; for Peak FEV1 increase over baseline / Peak FEV1 increase over placebo / Trough FEV1 / Trough FEV1 increase over baseline / Trough FEV1 increase over placebo: inhalation
Source text: Clinical Phase II study: A randomised double-blind, double-dummy, placebo and active comparator-controlled, cross-over trial assesses the activity, safety, tolerability and pharmacokinetics of single doses of 5-(2-{[6-(2,2-difluoro-2-phenylethoxy)hexyl]amino}-1-(R)-hydroxyethyl)-8-hydroxyquinolin-2(1H)-one heminapadisylate by inhalation in asthma patients.
Methods: Men with a diagnosis of mild to moderate persistent asthma, as defined by the 2006 GINA guideline, for at least 6 months prior to screening and with a FEV1 61-85% of the predicted normal values (according to Quanjer et al. 1993) were randomised to treatment sequences comprising a single-dose administration of 5-(2-{[6-(2,2-difluoro-2-phenylethoxy)hexyl]amino}-1-(R)-hydroxyethyl)-8-hydroxyquinolin-2(1H)-one heminapadisylate (at a metered nominal dose of 25 micrograms in the Cyclohaler® device), two administrations (at time points 0 and 12 hours) of Salmeterol (at a metered nominal dose of 50 micrograms in the Cyclohaler® device) and placebo administered all of them by means of a dry powder inhaler. Lung function measurements included (by spirometry) FEV1, PEF, FVC, FEF25-75, and (by body plethysmography) sGaw and Raw.
Results: 25 males (aged 18 to 70) took part in the study.

[1] = 25 micrograms single inhaled dose

SMILES | Peak FEV1 | Peak FEV1 increase over baseline | Peak FEV1 increase over placebo | Trough FEV1 | Trough FEV1 increase over baseline | Trough FEV1 increase over placebo | average peak and trough FEV1 compared with placebo and with salmeterol [1] | increase in average trough FEV1 compared to salmeterol (two doses) [1] | FEV1 values compared with salmeterol (single dose 25 micrograms) | bronchodilation: size, duration and onset (single dose 25 micrograms)
OCc1cc(C(O)CNCCCCCCOCCCCc2ccccc2)ccc1O (stereo not shown) [Salmeterol, 2-(hydroxymethyl)-4-{1-hydroxy-2-[6-(4-phenylbutoxy)hexylamino]ethyl}phenol, reference compound] | 3.521 L | 667 mL | 442 mL | 3.209 L | 355 mL | 285 mL | – | – | – | –
O=c1ccc2c([C@@H](O)CNCCCCCCOCC(F)(F)c3ccccc3)ccc(O)c2[nH]1 [5-(2-{[6-(2,2-difluoro-2-phenylethoxy)hexyl]amino}-1-(R)-hydroxyethyl)-8-hydroxyquinolin-2(1H)-one] | 3.819 L | 843 mL | 618 mL | 3.642 L | 666 mL | 718 mL | clearly increased | statistically significant | significantly higher than those produced by salmeterol | surprisingly large, long-lasting bronchodilation, with a fast onset
